According to ChEMBL document CHEMBL1134746, “[3-cis-3,5-Dimethyl-(1-piperazinyl)alkyl]-bis-(4'-fluorophenyl)amine analogues as novel probes for the dopamine transporter” (Bioorg Med Chem Lett, 2001):

Experiments:
[1] = target: Sodium-dependent serotonin transporter (Rattus norvegicus, UniProt P31652); assay: Binding affinity at Serotonin transporter using [3H]citalopram as radioligand from rat brain
[2] = system: Mus musculus; assay: Tested for rate of horizontal activity during a 30-min period after administration of compound at a concentration of 100 mg/kg; assay type: functional
[3] = system: Mus musculus; assay: Tested for rate of horizontal activity during a 30-min period after administration of compound at a concentration of 3 mg/kg; assay type: functional
[4] = system: Mus musculus; assay: Tested for rate of horizontal activity during a 30-min period after administration of compound at a concentration of 30 mg/kg; assay type: functional
[5] = system: Mus musculus; assay: Tested for rate of horizontal activity during a 30-min period after administration of compound at a concentration of 10 mg/kg; assay type: functional
[6] = system: Mus musculus; assay: Tested for rate of horizontal activity during a 30-min period after administration of compound at a concentration of 0.1 mg/kg; assay type: functional
[7] = system: Mus musculus; assay: Tested for rate of horizontal activity during a 30-min period after administration of compound at a concentration of 1.0 mg/kg; assay type: functional
[8] = system: Mus musculus; assay: Tested for rate of horizontal activity during a 30-min period after administration of compound at a concentration of 0.3 mg/kg; assay type: functional
[9] = target: Sodium-dependent dopamine transporter (Rattus norvegicus, UniProt P23977); assay: Binding affinity at Dopamine transporter by displacing [3H]WIN-35428 from rat caudate putamen; assay type: tissue-based
Chain of Sodium-dependent dopamine transporter (P23977 whole entry): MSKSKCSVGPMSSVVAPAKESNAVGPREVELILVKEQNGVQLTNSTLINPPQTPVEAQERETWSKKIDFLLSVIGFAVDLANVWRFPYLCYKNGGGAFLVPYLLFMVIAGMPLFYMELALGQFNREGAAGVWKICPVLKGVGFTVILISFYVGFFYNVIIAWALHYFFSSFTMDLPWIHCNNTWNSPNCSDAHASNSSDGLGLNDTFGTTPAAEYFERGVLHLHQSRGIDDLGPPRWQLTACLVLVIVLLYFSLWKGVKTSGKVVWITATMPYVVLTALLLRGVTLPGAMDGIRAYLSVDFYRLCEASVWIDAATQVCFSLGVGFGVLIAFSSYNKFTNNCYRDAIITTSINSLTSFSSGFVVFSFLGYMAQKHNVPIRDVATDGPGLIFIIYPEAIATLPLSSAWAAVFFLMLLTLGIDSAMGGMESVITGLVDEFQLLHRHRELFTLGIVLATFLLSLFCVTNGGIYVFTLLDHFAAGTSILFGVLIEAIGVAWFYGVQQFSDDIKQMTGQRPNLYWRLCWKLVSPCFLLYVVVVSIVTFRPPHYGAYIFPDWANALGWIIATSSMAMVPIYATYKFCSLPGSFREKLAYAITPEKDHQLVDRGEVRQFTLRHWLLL

[10] = system: Monoamine transporters; Norepinephrine & dopamine (Rattus norvegicus); assay: Selectivity ratio of DAT to that of NET receptor
[11] = target: Norepinephrine transporter (Rattus norvegicus, UniProt Q9WTR4); assay: Binding affinity at norepinephrine transporter using [3H]nisoxetine as radioligand from rat brain
Chain of Norepinephrine transporter (Q9WTR4 whole entry): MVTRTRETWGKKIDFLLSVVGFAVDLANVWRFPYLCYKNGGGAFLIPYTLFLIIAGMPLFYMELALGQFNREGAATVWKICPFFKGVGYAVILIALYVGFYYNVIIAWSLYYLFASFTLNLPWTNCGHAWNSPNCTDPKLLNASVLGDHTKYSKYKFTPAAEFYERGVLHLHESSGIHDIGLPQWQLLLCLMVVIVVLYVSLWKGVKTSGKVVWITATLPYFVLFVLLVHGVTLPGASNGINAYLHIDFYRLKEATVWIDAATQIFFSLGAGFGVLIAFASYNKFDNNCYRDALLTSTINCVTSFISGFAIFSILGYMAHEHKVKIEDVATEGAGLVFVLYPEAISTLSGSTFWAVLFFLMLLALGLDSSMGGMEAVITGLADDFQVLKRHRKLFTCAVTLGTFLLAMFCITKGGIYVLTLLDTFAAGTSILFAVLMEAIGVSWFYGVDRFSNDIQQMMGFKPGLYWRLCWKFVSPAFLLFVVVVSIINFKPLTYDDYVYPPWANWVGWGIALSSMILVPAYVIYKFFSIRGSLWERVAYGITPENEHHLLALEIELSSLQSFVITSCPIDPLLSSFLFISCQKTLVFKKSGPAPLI

[12] = system: Monoamine transporters; serotonin & dopamine (Rattus norvegicus); assay: Selectivity ratio for DAT to SERT evaluated
[13] = Selectivity ratio for DAT to SERT evaluated; assay type: functional
[14] = Selectivity ratio of DAT to that of NET receptor; assay type: functional
[15] = system: Mus musculus; assay: Tested for rate of horizontal activity during a 30-min period after administration of compound at a concentration of 5 mg/kg; assay type: functional
[16] = system: Mus musculus; assay: Tested for rate of horizontal activity during a 30-min period after administration of compound at a concentration of 50 mg/kg; assay type: functional

Chain of Sodium-dependent serotonin transporter (P31652 whole entry): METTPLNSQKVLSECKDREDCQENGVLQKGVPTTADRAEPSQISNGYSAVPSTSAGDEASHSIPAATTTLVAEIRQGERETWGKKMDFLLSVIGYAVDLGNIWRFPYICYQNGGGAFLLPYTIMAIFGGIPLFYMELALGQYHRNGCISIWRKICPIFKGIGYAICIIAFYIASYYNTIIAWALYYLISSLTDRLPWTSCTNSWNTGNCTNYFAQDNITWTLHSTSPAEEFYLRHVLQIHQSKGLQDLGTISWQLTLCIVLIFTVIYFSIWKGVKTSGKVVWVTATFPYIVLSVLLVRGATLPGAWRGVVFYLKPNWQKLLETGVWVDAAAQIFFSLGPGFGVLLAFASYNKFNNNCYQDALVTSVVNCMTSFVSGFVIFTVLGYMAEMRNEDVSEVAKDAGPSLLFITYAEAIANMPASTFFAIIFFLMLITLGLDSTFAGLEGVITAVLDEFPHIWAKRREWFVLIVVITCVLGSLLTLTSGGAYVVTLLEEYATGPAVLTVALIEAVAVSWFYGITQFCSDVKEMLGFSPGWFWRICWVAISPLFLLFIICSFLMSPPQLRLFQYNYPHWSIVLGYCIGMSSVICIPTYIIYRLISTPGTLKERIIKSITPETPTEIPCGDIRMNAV

SMILES	Ki [1] [nM]	Horizontal activity [2] [Counts min-1]	Horizontal activity [3] [Counts min-1]	Horizontal activity [4] [Counts min-1]	Horizontal activity [5] [Counts min-1]	Ki [9] [nM]	Ratio [10]	Ki [11] [nM]	Ratio [12]	other results
CC1CN(CCCn2c3ccccc3c3ccccc32)C[C@@H](C)N1 (single isomer, unassigned) [RIMCAZOLE]	1710	~0	~175	~220	~250	–	–	–	–	–
C[C@@H]1CN(CCCN(c2ccc(F)cc2)c2ccc(F)cc2)C[C@@H](C)N1CCCc1ccccc1	2130	~50	~240	~215	~250	17.6	60	1020	121	Horizontal activity [6]: ~200 Counts min-1; Horizontal activity [7]: ~250 Counts min-1; Horizontal activity [8]: ~210 Counts min-1
C[C@@H]1CN(CCCN(c2ccccc2)c2ccccc2)C[C@@H](C)N1CCc1ccc(Cl)c(Cl)c1	5010	–	–	–	–	261	–	> 30000	–	Ratio [13]: 19; Ratio [14]: > 115
COC(=O)[C@@H]1C2CC[C@@H](C[C@@H]1OC(=O)c1ccccc1)N2C (single isomer, unassigned) [COCAINE]	–	–	–	600	500	–	–	–	–	Horizontal activity [15]: 300 Counts min-1; Horizontal activity [16]: 550 Counts min-1
C[C@@H]1CN(CCCN(c2ccccc2)c2ccccc2)C[C@@H](C)N1CCCc1ccccc1	1220	–	–	–	–	61	60	3640	20	–
C[C@@H]1CN(CCCN(c2ccc(F)cc2)c2ccc(F)cc2)C[C@@H](C)N1CCc1ccc(Cl)c(Cl)c1	4300	–	–	–	–	131	–	> 100000	–	–
C[C@@H]1CN(CCCN(c2ccccc2)c2ccccc2)C[C@@H](C)N1	70900	–	–	–	–	813	8	6810	87	–
C[C@@H]1CN(CCCN(c2ccc(F)cc2)c2ccc(F)cc2)C[C@@H](C)N1	13100	–	–	–	–	83.2	203	16900	158	–
Fc1ccc(C(OCCN2CCN(CCCc3ccccc3)CC2)c2ccc(F)cc2)cc1 [VANOXERINE]	–	175	175	400	300	–	–	–	–	–
